# Reference: patent US7781565B2 (priority 2006, dated 2010)
# “Also recorded” adds a separate entry of the source.
# System: NCI-60 cell lines
# Format: cell-based, human
Substance,Cell Line (NCI-60 cell line the peptide is associated with),Cell Line with which the peptide (and its tripeptide motif) is associated,Cell Line the peptide is associated with (peptide recovered from phage library selection on this NCI-60 cell line),Cell Line (NCI-60 cell line the peptide and its motif are associated with)
PLRVLKR,SF-295 CNS,,,
PNRRVSA,,Hop-92-Lung,,
PNSAGSV,,,SN12C Renal,
PPGASLY,,,,M14 Melanoma
PPGGLKW,SW620-Colon,,,
PPPWGLR,,K-562-Leukemia,,
PPRAVTN,,,,UACC62 Melanoma
PQGPSSV,,,ACHN Renal,
PQGRGVK,SNB-75 CNS,,,
PRAGGRW,,EKVX-Lung,,
PRASDIL,,,BT-549 Breast,
PRASSTG,,,SN12C Renal,
PRGGRVA,,Hop-92-Lung,,
PRGLGVG,,,,SK-MEL-2 Melanoma
PRGMARG,,,BT-549 Breast,
PRGRLFD,HT-29 Colon,,,
PRGSLFA,,,UO31 Renal,
PRHRASQ,,,,OVCAR-8 Ovarian
PRLGRLL,,,TK-10 Renal,
PRLSDKS,,,,SK-MEL-28 Melanoma
PRLSWVL,HT-29 Colon,,,
PRSSGPM,,,RXF393 Renal,

Substance,Cell Line (NCI-60 cell line the peptide is associated with),Cell Line with which the peptide (and its tripeptide motif) is associated,Cell Line the peptide is associated with (peptide recovered from phage library selection on this NCI-60 cell line),Cell Line (NCI-60 cell line the peptide and its motif are associated with)
PRSSLVV,,H460-Lung,,
PRSSYNE,,H460-Lung,,
PRVSALV,,,MDA-MB-231 Breast,
PRYGVRA,,RPMI-8226-Leukemia,,
PSLLRGF,,,,UACC62 Melanoma
PSVGVRA,,H322-Lung,,
PTGAGLL,,,,IGROV1 Ovarian
PTGEGLR,,,,SK-MEL-5 Melanoma
PTSGRLV,,,,PC3 Prostate
PTVSAGL,,,NCI/ADR-RES Breast,
PVFRGGS,,,MDA-MB-231 Breast,
PVGAAVA,,,,UACC62 Melanoma
PVGGVLL,,A549-Lung,,
PVHSAGG,,H460-Lung,,
PVRGSVD,,HL-60-Leukemia,,
PVRRVSS,,,HS 578 T Breast,
PVSDGLV,,,,SK-OV-3-3 Ovarian
PWGAGVR,,,BT-549 Breast,
PWYDGSV,,,,OVCAR-3 Ovarian
PYRRGSC,,,MDA-MB-231 Breast,
PYYNGVR,,,,IGROV1 Ovarian
QAGSFLR,,EKVX-Lung,,

Substance,Cell Line (NCI-60 cell line the peptide is associated with),Cell Line with which the peptide (and its tripeptide motif) is associated,Cell Line the peptide is associated with (peptide recovered from phage library selection on this NCI-60 cell line),Cell Line (NCI-60 cell line the peptide and its motif are associated with)
QARGSWL,,,,OVCAR-4 Ovarian
QDRVSRS,,Hop-92-Lung,,
QGGRSGV,,,A498 Renal,
QGLVRGG,,,,OVCAR-4 Ovarian
QGRVNVK,SNB-19 CNS; also recorded: SF-539 CNS,H226-Lung,,
QGSSNSV,,,,IGROV1 Ovarian
QGYALRV,,H23-Lung,,
QKPGAVG,,,T-47D Breast,
QLGGSFR,,,,SK-MEL-28 Melanoma
QLLSQVY,,,MCF-7 Breast,
QLPGLLR,SNB-75 CNS,,,
QLVSGSL,HCT-116 Colon,,,
QMQGRAV,,H226-Lung,,
QRAAVIV,SNB-19 CNS; also recorded: SF-539 CNS,,,
QRSSDLT,,,,M14 Melanoma
QRYHLRS,,,CAIK-1 Renal,
QTLSAGG,SF-295 CNS,,,
QVAGRER,,CCRF-CEM Leukemia,,
QVLLRSF,,Hop-62-Lung,,
QVMMRGS,,HL-60-Leukemia,,
QVRRGVV,HT-29 Colon,,,
QWYSLRS,LOX-IMVI Melanoma,,,

Substance,Cell Line (NCI-60 cell line the peptide is associated with),Cell Line with which the peptide (and its tripeptide motif) is associated,Cell Line the peptide is associated with (peptide recovered from phage library selection on this NCI-60 cell line),Cell Line (NCI-60 cell line the peptide and its motif are associated with)
RAAGGSR,,RPMI-8226-Leukemia,,
RAAGRVG,HCT-15 Colon,,,
RAAGSAG,,,,IGROV1 Ovarian
RAAVGAR,,H23-Lung,,
RAAVIHT,MALME-3M Melanoma,,,
RAAVSAI,,Molt-4-Leukemia,,
RAGGGAP,,,ACHN Renal,
RAGRDAP,,,,UACC62 Melanoma
RAGRGFE,,,,UACC62 Melanoma
RAGSRVQ,SF-295 CNS,,,
RAGSRYI,,,,SK-MEL-28 Melanoma
RAHGLVC,,,RXF393 Renal,
RALGAAS,,,,SK-OV-3-3 Ovarian
RALGLVS,,CCRF-CEM Leukemia,,
RAMGGAG,,RPMI-8226-Leukemia,,
RANGVLV,,H23-Lung,,
RARTGGS,SNB-75 CNS,,,
RASCALT,,HL-60-Leukemia,,
RASCFWD,,,SN12C Renal,
RASCVWA,,,MCF-7 Breast,
RASCVWR,,,,DU-145 Prostate
RASFRAG,,SR Leukemia,,

Substance,Cell Line (NCI-60 cell line the peptide is associated with),Cell Line with which the peptide (and its tripeptide motif) is associated,Cell Line the peptide is associated with (peptide recovered from phage library selection on this NCI-60 cell line),Cell Line (NCI-60 cell line the peptide and its motif are associated with)
RASIGIE,,,,UACC 257 Melanoma
RASRIGL,,,TK-10 Renal,
RASYYGV,,,RXF393 Renal,
RAVCEWD,,,CAIK-1 Renal,
RAVEMGT,,H460-Lung,,
RAVERVA,,,CAIK-1 Renal,
RAVGRQL,,,,OVCAR-5 Ovarian
RAVGRVA,,HL-60-Leukemia,,
RAVGYNA,MALME-3M Melanoma,,,
RAVLELW,,,,SK-MEL-28 Melanoma
RAVWRAS,,,,SK-MEL-2 Melanoma
RDGAVNL,,,,UACC 257 Melanoma
RDGRAVR,KM-12C Colon,,,
RDGRGAG,SF-295 CNS,,,
RDGVRVG,LOX-IMVI Melanoma,,,
RDLAGPS,,,,OVCAR-4 Ovarian
RDLGGRW,,,MCF-7 Breast,
RDLRVHL,,,,UACC62 Melanoma
REAERVS,,H322-Lung,,
REEFAGR,,SR Leukemia,,
REGGSDT,,,NCI/ADR-RES Breast,
RERGAVQ,,CCRF-CEM Leukemia,,

Substance,Cell Line (NCI-60 cell line the peptide is associated with),Cell Line with which the peptide (and its tripeptide motif) is associated,Cell Line the peptide is associated with (peptide recovered from phage library selection on this NCI-60 cell line),Cell Line (NCI-60 cell line the peptide and its motif are associated with)
REVPGLR,SNB-19 CNS; also recorded: SF-539 CNS,,,
RFSGGLQ,,,,SK-MEL-28 Melanoma
RFSSRAV,,,,IGROV1 Ovarian
RFTRSSG,,A549-Lung,,
RFYHLRS,,A549-Lung,,
RGARVSA,,Molt-4-Leukemia,,
RGAVAFE,,SR Leukemia,,
RGAVREM,,,SN12C Renal,
RGGLPRG,HCT-15 Colon,,,
RGGQRAS,,,,M14 Melanoma
RGGRSPS,HT-29 Colon,,,
RGGSDEA,,,BT-549 Breast,
RGGSPPV,,,RXF393 Renal,
RGLGRPV,,,NCI/ADR-RES Breast,
RGLQGGR,,,,SK-MEL-2 Melanoma
RGLRSVN,,H226-Lung,,
RGLVRVV,COLO-205-Colon,,,
RGPSQVL,,,,PC3 Prostate
RGRGSTL,,,MDA-MB-435-Breast,
RGRLALL,,,,M14 Melanoma
RGRLEVP,,Molt-4-Leukemia,,
